Laboratory results reported in article PMC5570656 (Journal of medicinal chemistry, 2017).
Structures can show the parent of a compound that is named as a salt.

Legend:
[1] = mice, in words, earlier work; cited from earlier work
[2] = rats, in words, earlier work; cited from earlier work
[3] = system: Caco-2; conditions: in words, previously designed inhibitors; cited from earlier work
[4] = system: 45 different CNS targets and receptors; conditions: of 45 targets, cited from earlier work
[5] = in words
[6] = target: bovine eNOS (Bos taurus, UniProt P29473); conditions: ratio of respective Ki values
[7] = target: murine macrophage iNOS (Mus musculus, UniProt P29477); conditions: ratio of respective Ki values
[8] = target: nNOS (Homo sapiens, UniProt P29475); test: Stability of stored compound solutions; format: physicochemical; conditions: solutions stored for longer periods of time (ca. one week)
nNOS, sequence (P29475 whole entry): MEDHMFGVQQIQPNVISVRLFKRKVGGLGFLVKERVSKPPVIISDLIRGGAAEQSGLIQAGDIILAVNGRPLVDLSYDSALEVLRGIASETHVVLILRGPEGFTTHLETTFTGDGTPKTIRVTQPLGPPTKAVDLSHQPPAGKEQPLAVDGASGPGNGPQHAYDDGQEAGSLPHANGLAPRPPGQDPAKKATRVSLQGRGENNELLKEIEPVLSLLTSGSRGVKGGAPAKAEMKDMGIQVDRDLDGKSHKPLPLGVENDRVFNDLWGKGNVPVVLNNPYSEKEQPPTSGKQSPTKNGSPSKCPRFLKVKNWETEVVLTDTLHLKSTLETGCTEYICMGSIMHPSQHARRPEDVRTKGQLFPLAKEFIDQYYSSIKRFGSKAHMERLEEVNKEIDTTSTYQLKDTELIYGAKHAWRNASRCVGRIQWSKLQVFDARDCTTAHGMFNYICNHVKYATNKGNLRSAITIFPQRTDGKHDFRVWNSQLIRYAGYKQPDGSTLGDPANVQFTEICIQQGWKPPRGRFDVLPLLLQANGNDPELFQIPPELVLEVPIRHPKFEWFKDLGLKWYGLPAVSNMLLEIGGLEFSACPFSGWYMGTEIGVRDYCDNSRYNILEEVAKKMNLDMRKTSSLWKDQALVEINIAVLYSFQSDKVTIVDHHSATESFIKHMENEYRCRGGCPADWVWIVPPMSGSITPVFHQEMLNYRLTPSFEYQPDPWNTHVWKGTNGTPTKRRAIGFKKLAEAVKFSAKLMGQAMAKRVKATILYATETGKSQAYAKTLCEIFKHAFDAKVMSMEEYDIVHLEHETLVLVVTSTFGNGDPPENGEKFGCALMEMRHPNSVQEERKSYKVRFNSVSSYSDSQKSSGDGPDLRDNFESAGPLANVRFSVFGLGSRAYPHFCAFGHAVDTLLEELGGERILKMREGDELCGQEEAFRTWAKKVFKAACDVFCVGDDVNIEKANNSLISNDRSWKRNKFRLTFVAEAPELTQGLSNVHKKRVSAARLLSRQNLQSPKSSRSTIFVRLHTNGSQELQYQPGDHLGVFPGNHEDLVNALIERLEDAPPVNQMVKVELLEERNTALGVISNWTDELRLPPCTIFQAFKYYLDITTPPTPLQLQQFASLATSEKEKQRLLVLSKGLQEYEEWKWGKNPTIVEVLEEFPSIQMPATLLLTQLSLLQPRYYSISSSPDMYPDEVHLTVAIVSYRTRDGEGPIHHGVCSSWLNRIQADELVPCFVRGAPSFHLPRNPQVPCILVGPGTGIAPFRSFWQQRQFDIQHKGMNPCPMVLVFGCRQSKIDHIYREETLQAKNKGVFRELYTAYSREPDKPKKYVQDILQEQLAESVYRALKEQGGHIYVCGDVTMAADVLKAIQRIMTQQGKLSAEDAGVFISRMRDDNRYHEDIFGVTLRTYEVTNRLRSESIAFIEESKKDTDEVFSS

murine macrophage iNOS, sequence (P29477 whole entry): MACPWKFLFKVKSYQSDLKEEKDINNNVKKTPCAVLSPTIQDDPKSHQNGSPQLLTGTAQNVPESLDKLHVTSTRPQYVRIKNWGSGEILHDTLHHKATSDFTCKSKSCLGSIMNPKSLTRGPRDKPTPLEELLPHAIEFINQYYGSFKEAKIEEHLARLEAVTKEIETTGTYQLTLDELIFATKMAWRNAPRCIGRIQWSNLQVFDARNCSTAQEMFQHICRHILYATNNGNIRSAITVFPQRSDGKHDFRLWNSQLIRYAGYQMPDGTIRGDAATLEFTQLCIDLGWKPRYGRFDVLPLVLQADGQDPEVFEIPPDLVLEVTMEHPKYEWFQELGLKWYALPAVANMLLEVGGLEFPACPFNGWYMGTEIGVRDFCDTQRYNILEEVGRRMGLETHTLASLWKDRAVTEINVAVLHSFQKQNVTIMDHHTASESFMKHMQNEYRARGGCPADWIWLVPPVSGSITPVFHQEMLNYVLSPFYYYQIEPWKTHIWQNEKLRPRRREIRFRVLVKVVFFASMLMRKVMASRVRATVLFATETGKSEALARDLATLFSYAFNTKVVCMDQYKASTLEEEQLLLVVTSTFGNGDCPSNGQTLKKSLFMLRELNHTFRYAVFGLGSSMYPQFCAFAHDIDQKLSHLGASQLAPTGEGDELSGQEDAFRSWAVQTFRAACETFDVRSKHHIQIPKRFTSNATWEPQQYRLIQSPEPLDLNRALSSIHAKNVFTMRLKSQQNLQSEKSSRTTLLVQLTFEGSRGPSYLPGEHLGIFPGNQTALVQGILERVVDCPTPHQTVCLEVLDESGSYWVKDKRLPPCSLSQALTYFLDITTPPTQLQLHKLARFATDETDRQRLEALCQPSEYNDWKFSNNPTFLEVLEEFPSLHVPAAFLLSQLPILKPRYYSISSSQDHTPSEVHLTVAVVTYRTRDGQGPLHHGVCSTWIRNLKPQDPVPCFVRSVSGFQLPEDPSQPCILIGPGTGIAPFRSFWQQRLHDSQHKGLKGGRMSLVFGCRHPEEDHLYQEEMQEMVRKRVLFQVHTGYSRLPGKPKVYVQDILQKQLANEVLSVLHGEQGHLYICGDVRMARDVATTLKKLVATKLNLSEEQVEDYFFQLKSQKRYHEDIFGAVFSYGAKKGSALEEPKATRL
bovine eNOS, sequence (P29473 whole entry): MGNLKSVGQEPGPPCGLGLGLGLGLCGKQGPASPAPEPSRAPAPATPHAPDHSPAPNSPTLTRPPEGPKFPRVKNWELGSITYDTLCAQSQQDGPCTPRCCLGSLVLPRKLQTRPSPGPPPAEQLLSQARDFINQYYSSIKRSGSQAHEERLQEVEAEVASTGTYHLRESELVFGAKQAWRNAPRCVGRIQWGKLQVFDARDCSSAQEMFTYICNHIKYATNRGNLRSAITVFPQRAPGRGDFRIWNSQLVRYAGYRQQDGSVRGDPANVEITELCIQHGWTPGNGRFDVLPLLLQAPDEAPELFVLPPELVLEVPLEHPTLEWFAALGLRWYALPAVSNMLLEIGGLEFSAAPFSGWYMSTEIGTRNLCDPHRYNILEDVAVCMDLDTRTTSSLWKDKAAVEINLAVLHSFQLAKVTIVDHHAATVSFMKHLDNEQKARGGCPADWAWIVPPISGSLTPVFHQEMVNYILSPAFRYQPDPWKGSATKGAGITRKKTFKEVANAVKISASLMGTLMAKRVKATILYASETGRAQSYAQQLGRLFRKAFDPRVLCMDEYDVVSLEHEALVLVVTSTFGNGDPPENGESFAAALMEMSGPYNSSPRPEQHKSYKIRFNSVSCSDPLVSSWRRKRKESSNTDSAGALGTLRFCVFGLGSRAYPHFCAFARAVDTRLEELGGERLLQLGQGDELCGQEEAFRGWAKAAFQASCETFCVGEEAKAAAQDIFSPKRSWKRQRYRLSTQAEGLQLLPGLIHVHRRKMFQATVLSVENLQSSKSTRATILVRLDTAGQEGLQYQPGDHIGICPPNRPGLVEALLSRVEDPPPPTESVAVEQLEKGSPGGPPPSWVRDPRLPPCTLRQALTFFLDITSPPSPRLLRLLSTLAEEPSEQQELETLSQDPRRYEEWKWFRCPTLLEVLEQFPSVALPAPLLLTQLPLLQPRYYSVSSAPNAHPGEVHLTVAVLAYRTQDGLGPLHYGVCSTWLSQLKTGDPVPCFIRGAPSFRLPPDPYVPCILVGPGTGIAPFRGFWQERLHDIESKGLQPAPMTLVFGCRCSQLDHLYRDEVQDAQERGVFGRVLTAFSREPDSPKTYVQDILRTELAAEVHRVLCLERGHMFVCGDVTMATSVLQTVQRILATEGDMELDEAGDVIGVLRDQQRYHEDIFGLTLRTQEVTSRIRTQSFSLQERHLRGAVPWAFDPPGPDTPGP

## Nc1ccc2ccc(CCNCCc3cccc(F)c3)cc2n1 [Compound 4]
[1]
  oral bioavailability: good

## Nc1ccc2ccc(CCNCCc3cccc(Cl)c3)cc2n1 [Compound 5]
[2]
  brain penetration: brain penetration

## CNCc1cc(OCc2ccc3ccc(N)nc3c2)ccc1Cl [Compound 6]
[3]
  Caco-2 permeability: poor
[4]; 100-300 nM
  PDSP number of targets classified Moderate: 3
[4]; <50% bound at 10 μM
  PDSP number of targets classified Insignificant: 22
[4]; >300 nM
  PDSP number of targets classified Weak: 17
[4]; Ki <100 nM
  PDSP number of targets classified Concerning: 3

## N#Cc1cccc(NCc2ccc3ccc(N)nc3c2)c1 [Compound 7, 3-(((2-Aminoquinolin-7-yl)methyl)amino)benzonitrile Dihydrochloride]
[5]
  solubility: poor

## CN(C)c1cccc(CNCc2ccc3ccc(N)nc3c2)c1 [Compound 12, 7-(((3-(Dimethylamino)benzyl)amino)methyl)quinolin-2-amine Trihydrochloride]
[6]
  Selectivity rn/be: 16
[7]
  Selectivity rn/mi: 71

## CN(C)c1cccc(CCNCc2ccc3ccc(N)nc3c2)c1 [Compound 14, 3-(Dimethylamino)phenethyl)amino)methyl)quinolin-2-amine Trihydrochloride]
[8]
  stability of solutions: lost their nNOS inhibitory activity
